The text below walks through data of patent US7105505B2, “Benzimidazole derivatives useful as histamine H3 antagonists” (Schering Corporation, priority 2002, dated 2006).

The structures appear in SMILES notation.

In assay [1] the target is T1, human histamine H3 receptor (Homo sapiens, UniProt Q9Y5N1).
T1 construct: expressed in transfected cells
Description: rHu H3 Binding Assay (HEK-293 membranes). The note with it: Receptor Source rHu, 1.2 nM [3H]Nα-methylhistamine. Here is the method:
General Procedure for rHu H3Binding Assay
[^3H]N^∝-methylhistamine (82 Ci/mmole) was obtained from Dupont NEN. Thioperamide was obtained from the Chemical Research Department, Schering-Plough Research Institute.
HEK-293 human embryonic kidney cells stably expressing the human histamine H3 receptor were cultured in Dulbecco's modified Eagle's medium/10% fetal calf serum/penicillin (100 U/ml)/streptomycin (100 μg/ml)/Geneticin (0.5 mg/ml) at 37° C. in a humidified 5% CO2 atmosphere. Cells were harvested between passages five and twenty at 37° C. in 5 mM EDTA/Hank's balanced salt solution and processed for membrane preparation. After low-speed centrifugation, ten min at 1000×g, they were put into ten volumes of ice-cold buffer and disrupted with a Polytron (PTA 35/2 tip, 30 sec at setting 6). After subsequent low-speed centrifugation, supernatant was centrifuged ten min at 50,000×g. The high-speed pellet was resuspended in the original volume of buffer, a sample was taken for protein assay (bicinchoninic acid, Pierce) and the suspension was centrifuged again at 50,000×g. Membranes were resuspended at 1 mg of protein/ml of buffer and frozen at −80° C. until use.
Membrane (15 μg of protein) was incubated with 1.2 nM [^3H]N^∝-methyl-histamine, without or with inhibitor compounds, in a total volume of 200 μl of buffer. Nonspecific binding was determined in the presence of 10^−5 M thioperamide. Assay mixtures were incubated for 30 min at 30° C. in polypropylene, 96-well, deep-well plates, then filtered through 0.3% polyethylenimine-soaked GF/B filters. These were washed three times with 1.2 ml of 4° C. buffer, dried in a microwave oven, impregnated with Meltilex wax scintillant and counted at 40% efficiency in a Betaplate scintillation counter (Wallac).
IC50 values were interpolated from the data or were determined from curves fit to the data with Prism nonlinear least squares curve-fitting program (GraphPad Software, San Diego, Calif.). Ki values were determined from IC50 values according to the Cheng and Prusoff equation.

Assay [2] deals with T2, H3 receptors (Cavia porcellus, UniProt Q9JI35).
T2 construct: The source of the H3 receptors in this experiment was guinea pig brain; from tissue; host or cells: guinea pig brain membranes
T2 sequence (Q9JI35 whole entry): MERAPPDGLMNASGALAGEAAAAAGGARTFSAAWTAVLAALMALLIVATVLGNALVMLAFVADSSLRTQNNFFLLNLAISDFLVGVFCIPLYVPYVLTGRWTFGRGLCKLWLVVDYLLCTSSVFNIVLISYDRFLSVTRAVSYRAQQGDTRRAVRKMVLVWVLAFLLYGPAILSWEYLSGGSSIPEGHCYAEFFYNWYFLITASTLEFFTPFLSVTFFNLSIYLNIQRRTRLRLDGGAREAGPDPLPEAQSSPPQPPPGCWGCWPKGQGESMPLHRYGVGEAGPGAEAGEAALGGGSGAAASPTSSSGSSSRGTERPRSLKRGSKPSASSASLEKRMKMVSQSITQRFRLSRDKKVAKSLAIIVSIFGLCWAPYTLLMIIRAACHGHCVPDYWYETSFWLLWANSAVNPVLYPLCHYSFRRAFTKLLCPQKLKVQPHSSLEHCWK
Description: H3 Receptor Binding Assay (guinea pig brain membranes). Conditions: Receptor Source Guinea pig, [3H]R-α-methyl histamine or [3H]Nα-methyl histamine. The procedure: General Procedure for H3Receptor Binding Assay
The source of the H3 receptors in this experiment was guinea pig brain. The animals weighed 400–600 g. The brain tissue was homogenized with a solution of 50 mM Tris, pH 7.5. The final concentration of tissue in the homogenization buffer was 10% w/v. The homogenates were centrifuged at 1,000×g for 10 min. in order to remove clumps of tissue and debris. The resulting supernatants were then centrifuged at 50,000×g for 20 min. in order to sediment the membranes, which were next washed three times in homogenization buffer (50,000×g for 20 min. each). The membranes were frozen and stored at −70° C. until needed.
All compounds to be tested were dissolved in DMSO and then diluted into the binding buffer (50 mM Tris, pH 7.5) such that the final concentration was 2 μg/ml with 0.1% DMSO. Membranes were then added (400 μg of protein) to the reaction tubes. The reaction was started by the addition of 3 nM [^3H]R-α-methyl histamine (8.8 Ci/mmol) or 3 nM [^3H]N^α-methyl histamine (80 Ci/mmol) and continued under incubation at 30° C. for 30 min. Bound ligand was separated from unbound ligand by filtration, and the amount of radioactive ligand bound to the membranes was quantitated by liquid scintillation spectrometry. All incubations were performed in duplicate and the standard error was always less than 10%. Compounds that inhibited more than 70% of the specific binding of radioactive ligand to the receptor were serially diluted to determine a Ki (nM).

T1 sequence (Q9Y5N1 whole entry): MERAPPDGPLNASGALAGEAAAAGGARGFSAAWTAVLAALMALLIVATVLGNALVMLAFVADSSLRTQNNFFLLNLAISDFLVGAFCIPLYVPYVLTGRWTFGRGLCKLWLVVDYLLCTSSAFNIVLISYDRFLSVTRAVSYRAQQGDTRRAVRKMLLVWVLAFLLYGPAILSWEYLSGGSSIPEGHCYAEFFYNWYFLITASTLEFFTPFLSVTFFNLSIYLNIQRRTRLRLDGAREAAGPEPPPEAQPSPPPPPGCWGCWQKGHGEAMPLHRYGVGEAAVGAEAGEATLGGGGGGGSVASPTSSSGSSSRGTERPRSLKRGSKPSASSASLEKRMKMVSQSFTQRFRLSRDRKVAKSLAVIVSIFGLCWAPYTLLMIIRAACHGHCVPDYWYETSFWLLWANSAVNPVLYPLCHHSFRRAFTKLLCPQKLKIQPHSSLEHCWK

As to `Nc1cc(CN2CCC(C(=O)N3CCC(n4c(-c5ccccn5)nc5cc(F)ccc54)CC3)CC2)ccn1` [Example 1], the Ki in assay [1] was determined as 1 nM. This lies in the single-digit nanomolar range.

Consider `Nc1cc(CN2CCC(C(=O)N3CCC(c4nc5ccc(Cl)cc5[nH]4)CC3)CC2)ccn1` [Example 3], for which the Ki in assay [2] was found to be 13 nM.

`Nc1ncc(CN2CCC(F)(C(=O)N3CCC(n4c(-c5ccccn5)nc5cccnc54)CC3)CC2)cn1` [Example 5] displayed an inhibition constant Ki in assay [1] of 9 nM.

With `Nc1cc(CN2CCC(C(=O)N3CCC(n4c(-c5cc(Cl)cc(Cl)c5)nc5ccc(Cl)cc54)CC3)CC2)ccn1` [Example 54], the Ki in assay [2] stood at 30 nM.

Compound `Nc1cc(CN2CCC(C(=O)N3CCC(n4c(-c5ccccn5)nc5cc(F)c(F)cc54)CC3)CC2)ccn1` [Example 71] had a Ki in assay [2] of 1 nM. Against the preceding compound, the Ki is about 30-fold lower.

For `Cc1cc(-c2nc3cc(F)ccc3n2C2CCN(C(=O)C3CCN(Cc4ccnc(N)c4)CC3)CC2)no1` [Example 94], the affinity in assay [2] corresponds to a Ki of 1 nM.

Regarding `CSc1nc2cc(F)ccc2n1C1CCN(C(=O)C2CCN(Cc3ccnc(N)c3)CC2)CC1` [Example 109], in assay [1], the Ki turned out to be 1 nM.

Take `Nc1cc(CN2CCC(C(=O)N3CCC(n4c(N5CCOCC5)nc5cc(F)ccc54)CC3)CC2)ccn1` [Example 120]: the Ki in assay [2] worked out at 0.3 nM.

With `Nc1cc(CN2CCC(F)(C(=O)N3CCC(n4c(N5CCOCC5)nc5cc(F)ccc54)CC3)CC2)ccn1` [Example 165], in assay [1], the Ki was determined as 2 nM.

In the case of `Nc1cc(CN2CCC(C(=O)N3CCC(n4c(C5CC5)nc5cccnc54)CC3)CC2)ccn1` [Example 170], the Ki in assay [2] stood at 0.5 nM.

Compound `Nc1cc(CN2CCC(C(=O)N3CCC(n4c(-c5ccc(F)cc5)nc5cccnc54)CC3)CC2)ccn1` [Example 173] came in with a Ki in assay [2] of 0.4 nM. This Ki and that of the compound before are within 1.5-fold of each other.

In assay [2], `Nc1cc(CN2CCC(C(=O)N3CCC(n4c(-c5cc(-c6ccc(F)cc6)on5)nc5cccnc54)CC3)CC2)ccn1` [Example 195] displayed a Ki of 10 nM.

As to `Nc1ncc(CN2CCC(C(=O)N3CCC(n4c(-c5ccccn5)nc5cc(F)ccc54)CC3)CC2)cn1` [Example 211], the affinity in assay [2] corresponds to a Ki of 7 nM.

In assay [2], `Nc1ncc(CN2CCC(F)(C(=O)N3CCC(n4c(-c5ccc(F)cc5F)nc5cc(F)ccc54)CC3)CC2)cn1` [Example 254] registered an inhibition constant Ki of 13 nM.

The compound `CSc1nc2cc(F)ccc2n1C1CCN(C(=O)C2CCN(Cc3cnc(N)nc3)CC2)CC1` [Example 269] came in with a Ki in assay [1] of 4 nM.

`CCOc1nc2cc(F)ccc2n1C1CCN(C(=O)C2(F)CCN(Cc3cnc(N)nc3)CC2)CC1` [Example 270]: the Ki in assay [1] was determined as 4 nM.

With `Nc1ncc(CN2CCC(F)(C(=O)N3CCC(n4c(-c5ccoc5)nc5cccnc54)CC3)CC2)cn1` [Example 281], the Ki in assay [1] amounted to 4 nM.

`CSc1nc2cc(F)ccc2n1C1CCN(C(=O)C2(F)CCN(Cc3cnc(N)nc3)CC2)CC1` [Example 290]: the affinity in assay [1], expressed as Ki, was 3 nM.

The compound `COc1nc2cc(F)ccc2n1C1CCN(C(=O)C2(F)CCN(Cc3cnc(N)nc3)CC2)CC1` [Example 297] showed a Ki in assay [1] of 4 nM.

On to `CSc1nc2cccnc2n1C1CCN(C(=O)C2(F)CCN(Cc3cnc(N)nc3)CC2)CC1` [Example 315], for which, in assay [1], the affinity, expressed as Ki, was 5 nM.

In assay [1], `CCOc1nc2cccnc2n1C1CCN(C(=O)C2(F)CCN(Cc3cnc(N)nc3)CC2)CC1` [Example 316] showed a Ki of 5 nM.

`CC(C)Oc1nc2cc(F)ccc2n1C1CCN(C(=O)C2(F)CCN(Cc3cnc(N)nc3)CC2)CC1` [Example 326] displayed a Ki in assay [1] of 2 nM.

In assay [1], `Nc1ncc(CN2CCC(F)(C(=O)N3CCC(n4c(-c5cccc[n+]5[O-])nc5cccnc54)CC3)CC2)cn1` [Example 388] had a Ki of 30 nM.

`O=C(N1CCC(n2c(-c3ccccn3)nc3cc(F)ccc32)CC1)C1(F)CCN(Cc2ccnnc2)CC1` [Example 423]: the affinity in assay [1], expressed as Ki, was 5 nM.

On to `O=C(C1CCN(Cc2cc[nH]n2)CC1)N1CCC(n2c(-c3ccccn3)nc3cc(F)ccc32)CC1` [Example 442], for which the affinity in assay [1], expressed as Ki, was 1 nM.

`Nc1ncc(CN2CCC(F)(C(=O)N3CCC(n4c(Oc5ccccc5)nc5cc(F)ccc54)CC3)CC2)cn1` [Example 449] came in with a Ki in assay [1] of 1 nM.

Take `CCCOc1nc2cc(F)ccc2n1C1CCN(C(=O)C2(F)CCN(Cc3cnc(N)nc3)CC2)CC1` [Example 459]: affinity in assay [1] was put at a Ki of 4 nM.

`CCCOc1nc2cc(F)ccc2n1C1CCN(C(=O)C2CCN(Cc3cnc(N)nc3)CC2)CC1` [Example 460] returned a Ki in assay [1] of 4 nM.

In turn, `CCc1nc2cc(F)ccc2n1C1CCN(C(=O)C2(F)CCN(Cc3cnc(N)nc3)CC2)CC1` [Example 468] gave a Ki in assay [1] of 10 nM.

In assay [1], `CSc1nc2cc(F)ccc2n1C1CCN(C(=O)C2CCN(Cc3ccnnc3)CC2)CC1` [Example 493] showed a Ki of 1 nM.

With `CSc1nc2cc(Cl)ccc2n1C1CCN(C(=O)C2CCN(Cc3cnc(N)nc3)CC2)CC1` [Example 502], affinity in assay [1] was put at a Ki of 7 nM.

Regarding `CCOc1nc2cc(F)ccc2n1C1CCN(C(=O)C2CCN(Cc3ccnnc3)CC2)CC1` [Example 512], affinity in assay [1] was put at a Ki of 2 nM.

For the compound `Nc1ncc(CN2CCC(C(=O)N3CCC(n4c(SCc5ccccc5)nc5cc(F)ccc54)CC3)CC2)cn1` [Example 547], affinity in assay [1] was put at a Ki of 14 nM.

Take `CCCOc1nc2cccnc2n1C1CCN(C(=O)C2CCN(Cc3ccnnc3)CC2)CC1` [Example 552]: in assay [1], the inhibition constant Ki was 4 nM.

In turn, `O=C(C1CCN(Cc2ccnnc2)CC1)N1CCC(n2c(-c3ccccn3)nc3cc(Cl)ccc32)CC1` [Example 557] registered an inhibition constant (Ki) in assay [1] of 19 nM. Against the preceding compound, the Ki is about 4.8-fold higher.

As for `COc1nc2cc(F)ccc2n1C1CCN(C(=O)C2CCN(Cc3ccnnc3)CC2)CC1` [Example 571], the Ki in assay [1] turned out to be 2 nM. Against the preceding compound, the Ki is about 9.5-fold lower.

In turn, `CSc1nc2cc(F)c(F)cc2n1C1CCN(C(=O)C2(F)CCN(Cc3ccnc(N)c3)CC2)CC1` [Example 574] registered a Ki in assay [1] of 2 nM.

Compound `CCSc1nc2cc(C(F)(F)F)ccc2n1C1CCN(C(=O)C2CCN(Cc3cnc(N)nc3)CC2)CC1` [Example 577] returned a Ki in assay [1] of 44 nM. This Ki is about 22-fold higher than that of the compound before.

`CCCSc1nc2cccnc2n1C1CCN(C(=O)C2CCN(Cc3ccnnc3)CC2)CC1` [Example 588]: the Ki in assay [1] was found to be 6 nM.

For the compound `CCOc1nc2cc(Cl)ccc2n1C1CCN(C(=O)C2CCN(Cc3ccnnc3)CC2)CC1` [Example 592], the Ki in assay [1] is 9 nM.

Take `CSc1nc2cc(S(C)(=O)=O)ccc2n1C1CCN(C(=O)C2CCN(Cc3ccnnc3)CC2)CC1` [Example 595]: in assay [1], the Ki was found to be 41 nM.

Consider `CCc1nc2cc(F)ccc2n1C1CCN(C(=O)C2CCN(Cc3cnc(N)nc3)CC2)CC1` [Example 598], for which affinity in assay [1] was put at a Ki of 17 nM.

On to `Nc1cc(CCCN2CCC(C(=O)N3CCC(n4c(-c5ccccn5)nc5cccnc54)CC3)CC2)ccn1` [Example 608], for which, in assay [1], the Ki was determined as 1 nM.

Compound `CCCc1nc2cc(F)ccc2n1C1CCN(C(=O)C2CCN(Cc3cnc(N)nc3)CC2)CC1` [Example 618] gave a Ki in assay [1] of 9 nM. Compared with the last compound, the Ki is about 9-fold higher.

On to `CCCc1nc2cc(F)ccc2n1C1CCN(C(=O)C2CCN(Cc3ccnnc3)CC2)CC1` [Example 619], for which the inhibition constant (Ki) in assay [1] is 2 nM.

`CSc1nc2cc(Cl)ccc2n1C1CCN(C(=O)C2(F)CCN(Cc3cnc(N)nc3)CC2)CC1` [Example 625] had a Ki in assay [1] of 10 nM.

In assay [1], `CSc1nc2cc(Cl)ccc2n1C1CCN(C(=O)C2CCN(Cc3ccnnc3)CC2)CC1` [Example 628] registered a Ki of 4 nM.

For orientation: Ki means the equilibrium dissociation constant of an inhibitor or competing ligand from its target. Higher therefore signals lower affinity.
